Our source for the target mRNA knockdown values is the OligoGym collection.

HELM strings list units from the 5' end as sugar, base in round brackets, then linkage (d deoxyribose, r ribose, m 2'-O-methyl, p phosphodiester). Strings are as the collection lists them, not checked against the first reports. ss, as = sense and antisense strand; [lna] = locked nucleic acid (LNA); [s4r] = 4'-thioribose; [fl2r] = 2'-fluoro
Note: test system not given here.

For this data set the following is noted: siRNA.
Regarding “RNA1{r(C)p.r(C)p.r(G)p.r(A)p.r(A)p.r(G)p.r(A)p.r(C)p.r(G)p.r(A)p.r(A)p.r(G)p.r(C)p.r(U)p.r(A)p.r(U)p.r(G)p.r(A)p.r(A)p.r(T)p.r(T)}|RNA2{r(U)p.r(U)p.r(C)p.r(A)p.[fl2r](U)p.r(A)p.r(G)p.r(C)p.r(U)p.r(U)p.r(C)p.r(G)p.r(U)p.r(C)p.r(U)p.r(U)p.r(C)p.r(G)p.r(G)p.r(T)p.r(T)}$$$RNA1{StrandType:ss}|RNA2{StrandType:as}$”, the target mRNA knockdown worked out at 47%.

The substance “RNA1{r(C)p.r(U)p.r(U)p.r(A)p.r(C)p.r(G)p.r(C)p.r(U)p.r(G)p.r(A)p.r(G)p.r(U)p.r(A)p.r(C)p.r(U)p.r(U)p.r(C)p.r(G)p.r(A)p.r(T)p.r(T)}|RNA2{r(U)p.r(C)p.r(G)p.r(A)p.r(A)p.r(G)p.r(U)p.r(A)p.r(C)p.r(U)p.r(C)p.[lna](A)p.r(G)p.r(C)p.r(G)p.r(U)p.r(A)p.r(A)p.r(G)p.r(T)p.r(T)}$$$RNA1{StrandType:ss}|RNA2{StrandType:as}$” displayed a target mRNA knockdown of 89%. With “RNA1{r(C)p.r(G)p.r(A)p.r(G)p.r(U)p.r(G)p.r(U)p.r(C)p.r(U)p.r(A)p.r(A)p.r(C)p.r(G)p.r(G)p.r(G)p.r(A)p.r(G)p.r(C)p.r(C)p.r(T)p.r(T)}|RNA2{r(G)p.r(G)p.r(C)p.r(U)p.r(C)p.r(C)p.r(C)p.r(G)p.r(U)p.m(U)p.r(A)p.r(G)p.r(A)p.r(C)p.r(A)p.r(C)p.r(U)p.r(C)p.r(G)p.r(T)p.r(T)}$$$RNA1{StrandType:ss}|RNA2{StrandType:as}$”, the target mRNA knockdown stood at 68%. Regarding “RNA1{r(A)p.m(A)p.r(G)p.m(G)p.r(A)p.m(G)p.r(A)p.m(U)p.r(C)p.m(A)p.r(A)p.m(C)p.r(A)p.m(U)p.r(U)p.m(U)p.r(U)p.m(C)p.r(A)p.r(T)p.r(T)}|RNA2{r(U)p.m(G)p.r(A)p.m(A)p.r(A)p.m(A)p.r(U)p.m(G)p.r(U)p.m(U)p.r(G)p.m(A)p.r(U)p.m(C)p.r(U)p.m(C)p.r(C)p.m(U)p.r(U)p.r(T)p.r(T)}$$$RNA1{StrandType:ss}|RNA2{StrandType:as}$”, the target mRNA knockdown turned out to be 61%.

“RNA1{r(G)p.m(C)p.r(A)p.r(A)p.r(G)p.r(U)p.r(G)p.r(G)p.r(C)p.r(A)p.r(A)p.r(G)p.r(A)p.r(G)p.r(G)p.r(A)p.r(U)p.m(U)p.r(A)p.r(T)p.r(T)}|RNA2{m(U)p.r(A)p.r(A)p.r(U)p.r(C)p.r(C)p.r(U)p.r(C)p.r(U)p.m(U)p.r(G)p.r(C)p.m(C)p.r(A)p.r(C)p.r(U)p.m(U)p.r(G)p.r(C)p.r(T)p.r(T)}$$$RNA1{StrandType:ss}|RNA2{StrandType:as}$” came in with a target mRNA knockdown of 68%. Regarding “RNA1{[fl2r](A)p.r(G)p.[fl2r](U)p.r(U)p.[fl2r](U)p.r(C)p.[fl2r](U)p.r(A)p.[fl2r](G)p.r(G)p.[fl2r](G)p.[fl2r](C)p.r(C)p.[fl2r](G)p.r(U)p.r(G)p.[fl2r](G)p.r(C)p.r(C)p.r(T)p.r(T)}|RNA2{r(G)p.r(G)p.r(C)p.r(C)p.r(A)p.r(C)p.r(G)p.r(G)p.r(C)p.r(C)p.r(C)p.r(U)p.r(A)p.r(G)p.r(A)p.r(A)p.r(A)p.r(C)p.r(U)p.r(T)p.r(T)}$$$RNA1{StrandType:ss}|RNA2{StrandType:as}$”, the target mRNA knockdown was 75%. With “RNA1{r(A)p.r(A)p.r(A)p.r(G)p.r(G)p.r(G)p.r(G)p.r(A)p.r(G)p.r(U)p.m(U)p.r(G)p.r(C)p.m(U)p.r(G)p.r(G)p.r(A)p.r(A)p.r(G)p.r(T)p.r(T)}|RNA2{r(C)p.r(U)p.r(U)p.r(C)p.m(C)p.r(A)p.r(G)p.m(C)p.r(A)p.r(A)p.r(C)p.r(U)p.r(C)p.r(C)p.r(C)p.r(C)p.r(U)p.r(U)p.r(U)p.r(T)p.r(T)}$$$RNA1{StrandType:ss}|RNA2{StrandType:as}$”, the target mRNA knockdown turned out to be 74%. In turn, “RNA1{[s4r](C)p.[s4r](G)p.[s4r](U)p.[s4r](A)p.r(C)p.r(G)p.r(C)p.r(G)p.r(G)p.r(A)p.r(A)p.r(U)p.r(A)p.r(C)p.r(U)p.r(U)p.r(C)p.r(G)p.r(A)p.r(T)p.r(T)}|RNA2{[s4r](U)p.[s4r](C)p.r(G)p.r(A)p.r(A)p.r(G)p.r(U)p.r(A)p.r(U)p.r(U)p.r(C)p.r(C)p.r(G)p.r(C)p.r(G)p.r(U)p.r(A)p.[s4r](C)p.[s4r](G)p.r(T)p.r(T)}$$$RNA1{StrandType:ss}|RNA2{StrandType:as}$” returned a target mRNA knockdown of 85.4%.

The substance “RNA1{m(A)p.m(A)p.r(C)p.r(C)p.r(C)p.m(A)p.r(C)p.r(C)p.m(A)p.r(C)p.m(A)p.r(G)p.r(C)p.m(U)p.m(A)p.r(G)p.m(A)p.m(A)p.r(C)p.m(U)p.m(U)}|RNA2{r(A)p.r(A)p.r(G)p.r(U)p.r(U)p.r(C)p.m(U)p.m(A)p.r(G)p.r(C)p.r(U)p.r(G)p.r(U)p.r(G)p.r(G)p.r(U)p.r(G)p.r(G)p.r(G)p.r(U)p.r(U)}$$$RNA1{StrandType:ss}|RNA2{StrandType:as}$” gave a target mRNA knockdown of 44%. In turn, “RNA1{r(A)p.r(A)p.r(A)p.r(C)p.r(A)p.r(U)p.r(G)p.r(C)p.r(A)p.r(G)p.r(A)p.r(A)p.r(A)p.r(A)p.r(U)p.r(G)p.r(C)p.r(U)p.r(G)p.r(T)p.r(T)}|RNA2{r(C)p.r(A)p.r(G)p.r(C)p.r(A)p.r(U)p.r(U)p.r(U)p.r(U)p.r(C)p.r(U)p.r(G)p.r(C)p.r(A)p.r(U)p.r(G)p.r(U)p.[s4r](U)p.[s4r](U)p.r(T)p.r(T)}$$$RNA1{StrandType:ss}|RNA2{StrandType:as}$” showed a target mRNA knockdown of 57.2%. Regarding “RNA1{r(A)p.m(U)p.r(A)p.r(C)p.r(U)p.m(U)p.r(G)p.r(G)p.r(C)p.m(G)p.r(G)p.r(G)p.r(C)p.r(U)p.r(C)p.r(U)p.r(U)p.r(U)p.r(C)p.r(T)p.r(T)}|RNA2{r(G)p.r(A)p.r(A)p.r(A)p.r(G)p.r(A)p.r(G)p.r(C)p.r(C)p.r(C)p.r(G)p.r(C)p.m(C)p.r(A)p.r(A)p.r(G)p.m(U)p.r(A)p.r(U)p.r(T)p.r(T)}$$$RNA1{StrandType:ss}|RNA2{StrandType:as}$”, the target mRNA knockdown amounted to 42%. As for “RNA1{m(G)p.r(U)p.m(C)p.r(U)p.m(A)p.r(U)p.m(G)p.r(C)p.m(C)p.r(A)p.m(A)p.r(G)p.m(A)p.r(A)p.m(G)p.r(G)p.m(G)p.r(A)p.m(G)p.r(T)p.r(T)}|RNA2{r(C)p.r(U)p.r(C)p.r(C)p.r(C)p.r(U)p.r(U)p.r(C)p.r(U)p.r(U)p.r(G)p.r(G)p.r(C)p.r(A)p.r(U)p.r(A)p.r(G)p.r(A)p.r(C)p.r(T)p.r(T)}$$$RNA1{StrandType:ss}|RNA2{StrandType:as}$”, the target mRNA knockdown stood at 24%. The figure for “RNA1{r(C)p.[fl2r](U)p.r(A)p.[fl2r](A)p.r(G)p.[fl2r](C)p.r(C)p.[fl2r](U)p.r(G)p.[fl2r](U)p.r(U)p.[fl2r](U)p.r(C)p.[fl2r](U)p.r(U)p.[fl2r](C)p.r(C)p.[fl2r](U)p.r(C)p.r(T)p.r(T)}|RNA2{r(G)p.[fl2r](A)p.r(G)p.r(G)p.[fl2r](A)p.[fl2r](A)p.r(G)p.[fl2r](A)p.[fl2r](A)p.[fl2r](A)p.r(C)p.[fl2r](A)p.r(G)p.r(G)p.r(C)p.r(U)p.r(U)p.[fl2r](A)p.r(G)p.r(T)p.r(T)}$$$RNA1{StrandType:ss}|RNA2{StrandType:as}$” is 75%.

With “RNA1{[fl2r](U)p.r(A)p.[fl2r](A)p.r(C)p.[fl2r](C)p.r(C)p.[fl2r](C)p.r(A)p.[fl2r](A)p.r(G)p.[fl2r](A)p.r(A)p.[fl2r](C)p.r(G)p.[fl2r](G)p.r(G)p.[fl2r](C)p.r(U)p.[fl2r](U)p.r(T)p.r(T)}|RNA2{[fl2r](A)p.[fl2r](A)p.r(G)p.r(C)p.r(C)p.r(C)p.r(G)p.r(U)p.r(U)p.r(C)p.r(U)p.r(U)p.r(G)p.r(G)p.r(G)p.r(G)p.r(U)p.r(U)p.[fl2r](A)p.r(T)p.r(T)}$$$RNA1{StrandType:ss}|RNA2{StrandType:as}$”, the target mRNA knockdown worked out at 47%. Take “RNA1{r(C)p.r(G)p.r(U)p.r(A)p.r(C)p.r(G)p.r(C)p.r(G)p.r(G)p.r(A)p.r(A)p.r(U)p.r(A)p.r(C)p.r(U)p.[s4r](U)p.[s4r](C)p.[s4r](G)p.[s4r](A)p.r(T)p.r(T)}|RNA2{r(U)p.r(C)p.r(G)p.r(A)p.r(A)p.r(G)p.r(U)p.r(A)p.r(U)p.r(U)p.r(C)p.r(C)p.r(G)p.r(C)p.r(G)p.[s4r](U)p.[s4r](A)p.[s4r](C)p.[s4r](G)p.r(T)p.r(T)}$$$RNA1{StrandType:ss}|RNA2{StrandType:as}$”: the target mRNA knockdown amounted to 83.4%. Substance “RNA1{r(C)p.r(U)p.r(U)p.r(A)p.r(C)p.r(G)p.r(C)p.r(U)p.r(G)p.r(A)p.r(G)p.r(U)p.r(A)p.r(C)p.r(U)p.r(U)p.r(C)p.r(G)p.r(A)p.r(T)p.r(T)}|RNA2{r(T)p.r(C)p.r(G)p.r(A)p.r(A)p.r(G)p.r(U)p.r(A)p.r(C)p.r(U)p.r(C)p.r(A)p.r(G)p.r(C)p.r(G)p.r(U)p.r(A)p.r(A)p.[lna](G)p.[lna](T)p.[lna](T)}$$$RNA1{StrandType:ss}|RNA2{StrandType:as}$” gave a target mRNA knockdown of 92%. As for “RNA1{r(C)p.r(C)p.r(G)p.r(A)p.r(G)p.r(A)p.r(G)p.r(C)p.r(U)p.r(C)p.r(U)p.r(C)p.r(C)p.m(U)p.r(A)p.r(C)p.r(C)p.r(U)p.r(U)p.r(T)p.r(T)}|RNA2{r(A)p.r(A)p.r(G)p.r(G)p.m(U)p.r(A)p.r(G)p.r(G)p.r(A)p.r(G)p.r(A)p.r(G)p.r(C)p.r(U)p.r(C)p.r(U)p.r(C)p.r(G)p.r(G)p.r(T)p.r(T)}$$$RNA1{StrandType:ss}|RNA2{StrandType:as}$”, the target mRNA knockdown stood at 75%. Substance “RNA1{r(A)p.r(A)p.r(G)p.[fl2r](U)p.r(A)p.r(G)p.r(U)p.r(C)p.r(C)p.r(C)p.[fl2r](C)p.r(C)p.r(U)p.[fl2r](U)p.r(G)p.r(A)p.r(A)p.r(G)p.r(A)p.r(T)p.r(T)}|RNA2{r(U)p.r(C)p.r(U)p.r(U)p.[fl2r](C)p.r(A)p.r(A)p.r(G)p.r(G)p.r(G)p.r(G)p.r(G)p.r(A)p.r(C)p.[fl2r](U)p.r(A)p.r(C)p.r(U)p.r(U)p.r(T)p.r(T)}$$$RNA1{StrandType:ss}|RNA2{StrandType:as}$” displayed a target mRNA knockdown of 64%.

Substance “RNA1{r(G)p.r(A)p.r(A)p.r(G)p.r(A)p.r(G)p.r(C)p.r(C)p.m(U)p.m(A)p.m(C)p.r(A)p.m(C)p.r(A)p.r(A)p.r(C)p.r(C)p.r(C)p.r(U)p.r(T)p.r(T)}|RNA2{r(A)p.r(G)p.r(G)p.r(G)p.r(U)p.m(U)p.r(G)p.m(U)p.r(G)p.m(U)p.r(A)p.r(G)p.r(G)p.r(C)p.r(U)p.r(C)p.r(U)p.r(U)p.r(C)p.r(T)p.r(T)}$$$RNA1{StrandType:ss}|RNA2{StrandType:as}$” came in with a target mRNA knockdown of 74%.
